Test results: paper PMC8159961, “Exploring protein hotspots by optimized fragment pharmacophores” (Nature Communications, 2021)

Assays:
human 5-HT7b receptor = biological target: T1, human 5-HT7b receptor (Homo sapiens, UniProt P34969); test: GPCR radioligand binding assay, [3H]-5-CT displacement, HEK293 membranes; details: for 5-HT7 % Inhibition by plate position: 10 µM; for %inh 5-HT7 exp_1: replicate exp_1; for %inh 5-HT7 exp_2: replicate exp_2; for %inh 5-HT7 average: average of exp_1 and exp_2
T1 construct: expressed in transfected cells
T1 sequence (P34969 1-432): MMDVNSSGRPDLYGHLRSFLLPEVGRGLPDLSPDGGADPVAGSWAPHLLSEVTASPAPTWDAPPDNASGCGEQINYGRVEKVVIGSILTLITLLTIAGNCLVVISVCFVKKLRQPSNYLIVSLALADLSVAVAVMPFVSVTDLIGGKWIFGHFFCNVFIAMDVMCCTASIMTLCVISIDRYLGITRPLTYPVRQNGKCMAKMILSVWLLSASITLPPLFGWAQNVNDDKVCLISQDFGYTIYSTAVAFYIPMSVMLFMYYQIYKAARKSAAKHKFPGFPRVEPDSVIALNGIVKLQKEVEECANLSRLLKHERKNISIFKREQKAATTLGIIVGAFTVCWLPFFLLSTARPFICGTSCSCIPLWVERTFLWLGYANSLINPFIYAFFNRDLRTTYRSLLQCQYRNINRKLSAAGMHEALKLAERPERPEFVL

human 5-HT1A receptor = biological target: T2, human 5-HT1A receptor (Homo sapiens, UniProt P08908); test: GPCR radioligand binding assay, [3H]-8-OH-DPAT displacement, HEK293 membranes; details: for %inh 5-HT1A average: average of exp_1 and exp_2; for %inh 5-HT1A corrected*: average, values below 0 and above 100% were set as 0 and 100; for %inh 5-HT1A exp_1: replicate exp_1; for %inh 5-HT1A exp_2: replicate exp_2; for 5-HT1A % Inhibition by plate position: 10 µM
T2 construct: expressed in transfected cells
T2 sequence (P08908 1-422): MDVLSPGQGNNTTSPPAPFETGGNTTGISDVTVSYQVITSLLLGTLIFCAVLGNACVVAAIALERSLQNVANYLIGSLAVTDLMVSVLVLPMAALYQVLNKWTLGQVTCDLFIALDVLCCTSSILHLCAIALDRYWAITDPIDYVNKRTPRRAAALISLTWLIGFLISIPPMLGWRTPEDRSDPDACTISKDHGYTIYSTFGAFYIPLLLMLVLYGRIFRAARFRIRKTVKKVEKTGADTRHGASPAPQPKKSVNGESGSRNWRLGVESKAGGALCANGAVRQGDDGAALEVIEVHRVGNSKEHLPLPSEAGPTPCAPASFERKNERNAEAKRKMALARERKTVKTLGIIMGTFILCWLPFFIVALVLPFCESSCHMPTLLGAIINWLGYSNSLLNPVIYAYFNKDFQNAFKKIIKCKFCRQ

human 5-HT6 receptor = biological target: T3, human 5-HT6 receptor (Homo sapiens, UniProt P50406); test: GPCR radioligand binding assay, [3H]-LSD displacement, HEK293 membranes; details: for 5-HT6 % Inhibition by plate position: 10 µM; for %inh 5-HT6 average: average of exp_1 and exp_2; for %inh 5-HT6 corrected*: average, values below 0 and above 100% were set as 0 and 100; for %inh 5-HT6 exp_1: replicate exp_1; for %inh 5-HT6 exp_2: replicate exp_2
T3 construct: expressed in transfected cells
T3 sequence (P50406 whole entry): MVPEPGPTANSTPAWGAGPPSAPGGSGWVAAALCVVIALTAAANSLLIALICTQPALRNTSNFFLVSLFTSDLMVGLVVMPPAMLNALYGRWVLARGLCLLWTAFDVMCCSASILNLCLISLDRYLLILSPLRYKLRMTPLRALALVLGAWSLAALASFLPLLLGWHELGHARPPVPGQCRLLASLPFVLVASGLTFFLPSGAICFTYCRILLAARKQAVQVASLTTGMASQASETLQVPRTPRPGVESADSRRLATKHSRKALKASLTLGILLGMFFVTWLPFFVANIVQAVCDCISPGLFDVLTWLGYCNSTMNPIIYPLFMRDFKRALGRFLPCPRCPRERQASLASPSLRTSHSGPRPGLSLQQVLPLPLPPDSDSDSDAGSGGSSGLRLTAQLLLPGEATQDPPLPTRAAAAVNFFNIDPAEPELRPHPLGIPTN

Compound	5-HT7 % Inhibition by plate position (human 5-HT7b receptor) [%]	%inh 5-HT7 exp_1 (human 5-HT7b receptor) [%]	%inh 5-HT7 exp_2 (human 5-HT7b receptor) [%]	%inh 5-HT1A average (human 5-HT1A receptor) [%]	%inh 5-HT1A corrected* (human 5-HT1A receptor) [%]	%inh 5-HT1A exp_1 (human 5-HT1A receptor) [%]	%inh 5-HT1A exp_2 (human 5-HT1A receptor) [%]	5-HT6 % Inhibition by plate position (human 5-HT6 receptor) [%]	%inh 5-HT6 average (human 5-HT6 receptor) [%]	%inh 5-HT6 corrected* (human 5-HT6 receptor) [%]	%inh 5-HT6 exp_1 (human 5-HT6 receptor) [%]	%inh 5-HT6 exp_2 (human 5-HT6 receptor) [%]	5-HT1A % Inhibition by plate position (human 5-HT1A receptor) [%]	%inh 5-HT7 average (human 5-HT7b receptor) [%]
O=C(CN1CCNCC1)c1ccccc1 [E5]	8	14	3	6	6	9.52	3	49	49	49	45	54	–	–
O=C(O)C1CCCN(C(=O)N2CCCC2)C1 (stereo not drawn) [G6]	8.53	10	7	5	5	1	9	27	27	27	29	25	–	–
O=c1ccc2c([nH]1)CCCC2 [C5]	1	0.605	1.43	-1.35	–	-18	15	46	46	46	39	53	0	–
CC1(C)OC(=O)c2cc(Br)c(O)cc2O1 [C6]	0.891	1.78	0	-0.191	–	-7.5	7	56	56	56	67	45	0	–
Cc1ccc(C)n1Cc1ccccc1Cl [D6]	0	-2.55	-8.54	6.37	6.37	4.33	8	26	26	26	30	23	–	-5.55
NCC1(c2ccccc2)CCOCC1 [F10]	6	-0.903	13	11	11	10	12	23	23	23	20	25	–	–
FC1(F)CNCC(F)(F)O1 [H3]	0	-4	-10	-7	–	9	-23	36	36	36	40	31	0	-7
Cc1nc(-c2ccccc2)cs1 [A7]	0	-4	3.71	-4.34	–	-13	4	50	50	50	50	50	0	-0.168
O=C1CCC(=O)N(c2ccccc2)N1 [H7]	24	27	21	6	6	7	5.53	22	22	22	24	20	–	–
CS(=O)(=O)c1ccc(OC(F)(F)F)cc1 [B8]	6	3.74	8	-30	–	-20	-40	4	4	4	0	8	0	–
O=C(O)c1cccc(Nc2ncccn2)c1 [F5]	12	11	13	10	10	9	11	50	50	50	58	42	–	–
Fc1ccc2c(C3CCNCC3)c[nH]c2c1 [H4]	78	78	78	81	81	87	75	90	90	90	81	98	–	–
O=C(CN1CCCC1)c1ccccc1Cl [G10]	3.47	8	-1	78	78	77	79	19	19	19	17	20	–	–
c1ccc(-c2ccncc2)cc1 [C2]	6	14	-2	-6	–	-11	0	36	36	36	32	40	0	–
Cc1cc(N)no1 [B11]	1.49	-8	11	-21	–	-18	-24	37	37	37	40	34	0	–
